Values quoted from earlier work as cited in patent US6770269B1, “Cosmetic and dermatological light-protective formulations containing triazine derivatives and one or several esters of unbranched-chain carboxylic acids and branched-chain alcohols” (Beiersdorf AG, priority 1998, dated 2004).

CCCCC(CC)COC(=O)c1ccc(Nc2nc(Nc3ccc(C(=O)OCC(CC)CCCC)cc3)nc(Nc3ccc(C(=O)OCC(CC)CCCC)cc3)n2)cc1 (centres unmarked) [UVINUL7 T 150, tris(2-ethylhexyl) 4,4′,4″-(1,3,5-triazine-2,4,6-triyltriimino)trisbenzoate]
corresponding dissolved, and therefore active, UV filter substance (corresponds to the maximum solubility in known solvents): 1-1.5 % by weight | maximum amount of the filter that known solvents can dissolve (known solvents (lipids), prior art): about 15 % by weight
